From patent US20230124862A1, “BISMUTH THIOL COMPOUNDS AND COMPOSITIONS AND METHODS OF TREATING MICROBIAL CO-INFECTIONS” (Microbion Corporation, priority 2020, published 2023)
In brackets after ≈: the same amount, converted by molar mass.

Key:
[1] = tested on: DNA synthesis in E. coli ATCC 25922; conditions: 16X the MIC
[2] = tested on: Gram-positive organisms (S. aureus, S. pneumoniae); test: Broth microdilution MIC with pulmonary surfactant (Survanta); type: cell-based, Staphylococcus aureus, Streptococcus pneumoniae
[3] = tested on: cell wall synthesis in E. coli ATCC 25922; conditions: 8X the MIC
E. coli ATCC 25922 = test: Broth microdilution MIC (Example 16); conditions: Escherichia coli
[4] = tested on: protein synthesis in E. coli ATCC 25922; conditions: 8X the MIC
[5] = ATCC25922, E. coli ATCC 25922, inoculum 1
[6] = ATCC25922, E. coli ATCC 25922, inoculum 2

Structure (SMILES)	inhibition of DNA synthesis [1] [%]	MIC ([2]; S. pneumoniae ATCC 49619, 0 percent Survanta) [µg/mL]	MIC ([2]; S. pneumoniae ATCC 49619, 1 percent Survanta) [µg/mL]	MIC ([2]; S. pneumoniae ATCC 49619, 2.5 percent Survanta) [µg/mL]	MIC ([2]; S. pneumoniae MMX 3162, 0 percent Survanta) [µg/mL]	MIC ([2]; S. pneumoniae MMX 3162, 1 percent Survanta) [µg/mL]	MIC ([2]; S. pneumoniae MMX 3162, 2.5 percent Survanta) [µg/mL]	MIC ([2]; S. pneumoniae MMX 3162, 5 percent Survanta) [µg/mL]	MIC ([2]; Staphylococcus aureus, ATCC29213, S. aureus ATCC 29213, 0 percent Survanta) [µg/mL]	MIC ([2]; Staphylococcus aureus, ATCC29213, S. aureus ATCC 29213, 1 percent Survanta) [µg/mL]	MIC ([2]; Staphylococcus aureus, ATCC29213, S. aureus ATCC 29213, 2.5 percent Survanta) [µg/mL]	MIC ([2]; Staphylococcus aureus, ATCC29213, S. aureus ATCC 29213, 5 percent Survanta) [µg/mL]	MIC ([2]; Staphylococcus aureus, ATCC29213, S. aureus ATCC 29213, 10 percent Survanta) [µg/mL]	MIC ([2]; Staphylococcus aureus, ATCC43300, S. aureus ATCC 43300, 0 percent Survanta) [µg/mL]	inhibition of cell wall synthesis [3] [%]	MIC (E. coli ATCC 25922; ATCC25922) [µg/mL]	MIC (E. coli ATCC 25922; [5]) [µg/mL]	MIC (E. coli ATCC 25922; [6]) [µg/mL]	inhibition of protein synthesis [4] [%]
O=C(O)c1cn(C2CC2)c2cc(N3CCNCC3)c(F)cc2c1=O [ciprofloxacin]	89.6																		
C[C@@H](O)[C@H]1C(=O)N2C(C(=O)O)=C(SCCN=CN)C[C@H]12 [imipenem]		≤ 0.015	0.03 (≈ 0.1 µM)	0.03 (≈ 0.1 µM)	0.25 (≈ 0.835 µM)	0.25 (≈ 0.835 µM)	0.25 (≈ 0.835 µM)	0.25 (≈ 0.835 µM)	≤ 0.015	≤ 0.015	≤ 0.015	≤ 0.015	≤ 0.015	0.5 (≈ 1.67 µM)	78.8	0.12 (≈ 0.401 µM)	0.12 (≈ 0.401 µM)	0.12 (≈ 0.401 µM)	
CN(C)[C@@H]1C(O)=C(C(N)=O)C(=O)[C@@]2(O)C(O)=C3C(=O)c4c(O)cccc4[C@@](C)(O)[C@H]3C[C@@H]12 [tetracycline]																1 (≈ 2.25 µM)	1 (≈ 2.25 µM)	1 (≈ 2.25 µM)	93.8
